pIC50: −log10 of the molar value. Bounds are passed on as bounds.

The target in the assay is T1, human SK3 channel (hKCa2.3) (Homo sapiens, UniProt Q9UGI6).
T1 construct: expressed in transfected cells
Briefly: Automated patch clamping (QPatch 16 HT whole-cell recordings). It counts as cell-based. The following applies: HEK-293 cells stably expressing hKCa2.3; currents measured at −80 mV; normalized to N-methyl bicuculline; read-out: IC50 in the Automated patch clamping assay (SK3 channel inhibition). The method, then: Automated whole cell patch-clamp recordings were performed using a QPatch 16 HT system and single-hole Qplates (Sophion, Denmark) on HEK-293 cells stably expressing the human SK3 channel (hKCa2.3). Cells were cultured and prepared for experiments using normal cell culturing procedures. A total of 4-5 million cells were used per experiment. The Qpatch automatically generates giga sealing, whole-cell formation, compound application and recording of current. hKCa2.3 currents were recorded in symmetrical K^+ solutions. The intracellular/pipette solution contained 154 mM KCl, 10 mM HEPES and 10 mM EGTA. CaCl2 is added to give calculated free concentrations of Ca^2+ of 0.4 μM and MgCl2 is added to give a free concentration of 1 mM. In order to maintain a total [K^+] of 156 mM (corresponding to the concentration in the extracellular ringer) a fixed amount of KOH (15 mM) is added, thereafter pH is adjusted with HCl to pH=7.2. Expected osmolarity: 275 mOsm. Sucrose was added to a final osmolarity around 295 mosm. The extracellular solution consisted of (in mM): CaCl2 0.1, MgCl2 3, KCl 150, HEPES 10 and glucose 10, pH=7.4 adjusted with KOH. Osmolarity between 285-295 mosm. The cells were held at 0 mV and hKCa2.3 currents were elicited by a linear voltage ramp from −80 mV to +80 mV (200 ms in duration) applied every 5th second.
The compound application protocol consisted of 12 recording periods lasting 200 s: 1) Baseline recordings in extracellular solution; 2) Application of the positive control N-methyl bicuculline (100 μM), which is characterized by full efficacy, fast on- and off-rate; 3-4) Wash-out; 5-10) Increasing concentrations of test compound to establish an IC50 value; 11-12) Wash-out; 13) positive control with compound NS8593 (N-[(1R)-1,2,3,4-tetrahydro-1-naphthalenyl]-1H-benzimidazol-2-amine) (1 μM) or with N-methyl bicuculline (100 μM). Data were sampled at 10 kHz, 4th order Bessel filter, cut-off frequency 3 kHz. Currents were compensated for run-down. Potency was quantified as the concentration needed to inhibit half of the SK channel activity and reported as an IC50 value.
All effects of compounds of the present invention as tested were normalized to the observed inhibitory effect of N-methyl bicuculline. Currents were measured at −80 mV.
(In general: In patch-clamp work, channel activity is measured electrically.)
As for `CC(CO)(Nc1nc2c(Cn3ccoc3=N)cccc2[nH]1)c1ccc(F)c(Cl)c1` (single isomer, unassigned; (-)) [Example 8a, (−)-2-(3-chloro-4-fluorophenyl)-2-({4-[(2-imino-2,3-dihydro-1,3-oxazol-3-yl)methyl]-1H-1,3-benzodiazol-2-yl}amino)propan-1-ol], the pIC50 was over 6.00.

Turning to `Cc1cc(NCc2cccc3[nH]c(NC(C)(CO)c4ccc(F)c(Cl)c4)nc23)no1` (single isomer, unassigned; (-)) [Example 12a, (−)-2-(3-chloro-4-fluorophenyl)-2-((4-(((5-methylisoxazol-3-yl)amino)methyl)-1H-benzo[d]imidazol-2-yl)amino)propan-1-ol], the pIC50 was over 6.00. Take `Cc1coc(=N)n1Cc1cccc2[nH]c(NC(C)(CO)c3ccc(F)c(Cl)c3)nc12` (single isomer, unassigned; (-)) [Example 13a, (−)-2-(3-chloro-4-fluorophenyl)-2-({4-[(2-imino-4-methyl-2,3-dihydro-1,3-oxazol-3-yl)methyl]-1H-1,3-benzodiazol-2-yl}amino)propan-1-ol]: the pIC50 was over 6.00. On to `CC(CO)(Nc1nc2c(Cn3ccoc3=N)cccc2[nH]1)c1cccc(C(F)(F)F)c1` (single isomer, unassigned; (-)) [Example 18a, (−)-2-({4-[(2-imino-2,3-dihydro-1,3-oxazol-3-yl)methyl]-1H-1,3-benzodiazol-2-yl}amino)-2-[3-(trifluoromethyl)-phenyl]propan-1-ol], for which the pIC50 was over 6.00.

Take `Cc1coc(=N)n1Cc1cccc2[nH]c(NC(C)(CO)c3cccc(C(F)(F)F)c3)nc12` (single isomer, unassigned; (-)) [Example 23a, (−)-2-({4-[(2-imino-4-methyl-2,3-dihydro-1,3-oxazol-3-yl)methyl]-1H-1,3-benzodiazol-2-yl}amino)-2-[3-(trifluoromethyl)phenyl]propan-1-ol]: the pIC50 is over 6.00. `Cc1cn(Cc2cccc3[nH]c(NC(C)(CO)c4cccc(OC(F)(F)F)c4)nc23)c(=N)o1` (single isomer, unassigned; (-)) [Example 30a, (−)-2-({4-[(2-imino-5-methyl-2,3-dihydro-1,3-oxazol-3-yl)methyl]-1H-1,3-benzodiazol-2-yl}amino)-2-[3-(trifluoromethoxy)-phenyl]propan-1-ol]: the pIC50 is over 6.00.

For `CC(CO)(Nc1nc2c(Cn3ccsc3=N)cccc2[nH]1)c1ccc(F)c(Cl)c1` (single isomer, unassigned; (-)) [Example 32a, (−)-2-(3-chloro-4-fluorophenyl)-2-({4-[(2-imino-2,3-dihydro-1,3-thiazol-3-yl)methyl]-1H-1,3-benzodiazol-2-yl}amino)propan-1-ol], the pIC50 is over 6.00. Regarding `CC(CO)(Nc1nc2c(CNc3ncco3)cccc2[nH]1)c1ccc(Cl)c(F)c1` (single isomer, unassigned; (-)) [Example 40a, (−)-2-(4-chloro-3-fluorophenyl)-2-[(4-{[(1,3-oxazol-2-yl)amino]methyl}-1H-1,3-benzodiazol-2-yl)amino]propan-1-ol], the pIC50 is over 4.52. For the molecule `CC(CO)(Nc1nc2c(Cn3ccoc3=N)cccc2[nH]1)c1cccc(Cl)c1F` (single isomer, unassigned; (-)) [Example 41a, (−)-2-(3-chloro-2-fluorophenyl)-2-({4-[(2-imino-2,3-dihydro-1,3-oxazol-3-yl)methyl]-1H-1,3-benzodiazol-2-yl}amino)propan-1-ol], the pIC50 was over 6.00. `CC(CO)(Nc1nc2c(CNc3ccon3)cccc2[nH]1)c1cc(F)cc(Cl)c1` (single isomer, unassigned; (-)) [Example 46a, (−)-2-(3-chloro-5-fluorophenyl)-2-[(4-{[(1,2-oxazol-3-yl)amino]methyl}-1H-1,3-benzodiazol-2-yl)amino]propan-1-ol]: the pIC50 was over 4.52. The same measure for `N=c1occn1Cc1cccc2[nH]c(NC3(c4cccc(Cl)c4)CC3)nc12` [Example 1, N-[1-(3-chlorophenyl)cyclopropyl]-4-[(2-imino-2,3-dihydro-1,3-oxazol-3-yl)methyl]-1H-1,3-benzodiazol-2-amine]: over 4.52. In the case of `CC(C)(Nc1nc2c(Cn3ccoc3=N)cccc2[nH]1)c1cccc(Cl)c1` [Example 2, N-[2-(3-chlorophenyl)propan-2-yl]-4-[(2-imino-2,3-dihydro-1,3-oxazol-3-yl)methyl]-1H-1,3-benzodiazol-2-amine], the pIC50 was over 6.00. With `CC(CO)(Nc1nc2c(Cn3ccoc3=N)cccc2[nH]1)c1cccc(Cl)c1` (stereo not shown) [Example 3, 2-(3-chlorophenyl)-2-({4-[(2-imino-2,3-dihydro-1,3-oxazol-3-yl)methyl]-1H-1,3-benzodiazol-2-yl}amino)propan-1-ol], the pIC50 is over 6.00. Consider `CC(Nc1nc2c(Cn3ccoc3=N)cccc2[nH]1)c1cccc(C(F)(F)F)c1` (stereo not shown) [Example 4, 4-[(2-imino-2,3-dihydro-1,3-oxazol-3-yl)methyl]-N-{1-[3-(trifluoromethyl)phenyl]ethyl}-1H-1,3-benzodiazol-2-amine], for which the pIC50 was over 6.00. Turning to `Cc1coc(=N)n1Cc1cccc2[nH]c(NC(C)(CO)c3cccc(Cl)c3)nc12` (stereo not shown) [Example 5, 2-(3-chlorophenyl)-2-({4-[(2-imino-4-methyl-2,3-dihydro-1,3-oxazol-3-yl)methyl]-1H-1,3-benzodiazol-2-yl}amino)propan-1-ol], the pIC50 is over 6.00. The same measure for `COCC(C)(Nc1nc2c(Cn3ccoc3=N)cccc2[nH]1)c1cccc(Cl)c1` (stereo not shown) [Example 6, N-[2-(3-chlorophenyl)-1-methoxypropan-2-yl]-4-[(2-imino-2,3-dihydro-1,3-oxazol-3-yl)methyl]-1H-1,3-benzodiazol-2-amine]: over 4.52; for `CC(C)(Nc1nc2c(Cn3ccoc3=N)cccc2[nH]1)c1cccc(C(F)(F)F)c1` [Example 7, 4-[(2-imino-2,3-dihydro-1,3-oxazol-3-yl)methyl]-N-{2-[3-(trifluoromethyl)phenyl]propan-2-yl}-1H-1,3-benzodiazol-2-amine]: over 6.00.

On to `CC(CO)(Nc1nc2c(Cn3ccoc3=N)cccc2[nH]1)c1ccc(F)c(Cl)c1` (stereo not shown) [Example 8, 2-(3-chloro-4-fluorophenyl)-2-({4-[(2-imino-2,3-dihydro-1,3-oxazol-3-yl)methyl]-1H-1,3-benzodiazol-2-yl}amino)propan-1-ol], for which the pIC50 is over 6.00. As for `CC(CO)(Nc1nc2c(CNc3ccon3)cccc2[nH]1)c1ccc(F)c(Cl)c1` (stereo not shown) [Example 9, 2-(3-chloro-4-fluorophenyl)-2-[(4-{[(1,2-oxazol-3-yl)amino]methyl}-1H-1,3-benzodiazol-2-yl)amino]propan-1-ol], the pIC50 is over 6.00. `COCC(C)(Nc1nc2c(Cn3c(C)coc3=N)cccc2[nH]1)c1cccc(Cl)c1` (stereo not shown) [Example 10, N-[2-(3-chlorophenyl)-1-methoxypropan-2-yl]-4-[(2-imino-4-methyl-2,3-dihydro-1,3-oxazol-3-yl)methyl]-1H-1,3-benzodiazol-2-amine]: the pIC50 is over 4.52. The result for `CC(CO)(Nc1nc2c(CNc3ccncn3)cccc2[nH]1)c1ccc(F)c(Cl)c1` (stereo not shown) [Example 11, 2-(3-chloro-4-fluorophenyl)-2-[(4-{[(pyrimidin-4-yl)amino]methyl}-1H-1,3-benzodiazol-2-yl)amino]propan-1-ol] reads over 4.52; that for `Cc1cc(NCc2cccc3[nH]c(NC(C)(CO)c4ccc(F)c(Cl)c4)nc23)no1` (stereo not shown) [Example 12, 2-(3-chloro-4-fluorophenyl)-2-[(4-{[(5-methyl-1,2-oxazol-3-yl)amino]methyl}-1H-1,3-benzodiazol-2-yl)amino]propan-1-ol], over 6.00; that for `Cc1coc(=N)n1Cc1cccc2[nH]c(NC(C)(CO)c3ccc(F)c(Cl)c3)nc12` (stereo not shown) [Example 13, 2-(3-chloro-4-fluorophenyl)-2-({4-[(2-imino-4-methyl-2,3-dihydro-1,3-oxazol-3-yl)methyl]-1H-1,3-benzodiazol-2-yl}amino)propan-1-ol], over 6.00. Regarding `COCC(C)(Nc1nc2c(Cn3ccoc3=N)cccc2[nH]1)c1ccc(F)c(Cl)c1` (stereo not shown) [Example 14, N-[2-(3-chloro-4-fluorophenyl)-1-methoxypropan-2-yl]-4-[(2-imino-2,3-dihydro-1,3-oxazol-3-yl)methyl]-1H-1,3-benzodiazol-2-amine], the pIC50 is over 4.52. As to `Cc1nc(NCc2cccc3[nH]c(NC(C)(CO)c4ccc(F)c(Cl)c4)nc23)no1` (stereo not shown) [Example 15, 2-(3-chloro-4-fluorophenyl)-2-[(4-{[(5-methyl-1,2,4-oxadiazol-3-yl)amino]methyl}-1H-1,3-benzodiazol-2-yl)amino]propan-1-ol], the pIC50 is over 4.52.

What is called pIC50 is the IC50 on a negative log10 scale, so that one unit is a factor of ten.

The values are drawn from US11945811B2, “Potassium channel inhibitors” (ACESION PHARMA APS, priority 2021, dated 2024).
